Data from the supplement of paper PMC12137928.
Structures can show the parent of a compound that is named as a salt.

System: HCT116
Conditions: 72 h
Method in brief: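 HCT116 cells were seeded at 250 per well in 1536-well plates and left 5 h to attach. CellTiter-Glo luminescence was scaled to vehicle (0%) and positive control (-100%), then pattern-corrected. IC50 and maximal efficacy came from four-parameter Hill fits.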

Structure (SMILES)	IC50 cell viability (ICRF193 0 nM) [µM]	IC50 cell viability (ICRF193 200 nM) [µM]
Cc1cn([C@H]2C[C@H](N=[N+]=[N-])[C@@H](CO)O2)c(=O)[nH]c1=O [3'-Azido-3'-deoxythymidine]	> 45.8	> 45.8
CC1CC(OC(=O)c2ccccc2O)CC(C)(C)C1 (stereo not given) [3,3,5-Trimethylcyclohexyl salicylate]	> 45.8	> 45.8
CCCCCCCCCCCCCCCCCCOCC(O)CO (stereo not given) [3-(Octadecyloxy)-1,2-propanediol]	> 45.8	> 45.8
OCCCNc1ccccc1 [3-Anilinopropan-1-ol]	> 45.8	> 45.8
CCOc1ccc(NC(=O)CC(C)O)cc1 (stereo not given) [3-Hydroxy-4-butyrophenetidide]	> 45.8	> 45.8
CC(C)CCON=O [3-Methylbutyl nitrite]	> 45.8	> 45.8
Cc1c[nH]c2ccccc12 [3-Methylindole]	> 45.8	> 45.8
CC(C)(C)CC(C)(C)c1ccc(O)cc1 [4-(1,1,3,3-Tetramethylbutyl)phenol]	> 45.8	> 45.8
CC(=O)Nc1ccc(C(=O)O)cc1 [4-Acetamidobenzoic acid]	> 45.8	> 45.8
CC(=O)Nc1ccc(CC(=O)O)cc1 [4-Acetylaminophenylacetic acid]	> 45.8	> 45.8
Nc1ccc(C(=O)O)cc1 [4-Aminobenzoic acid]	> 45.8	> 45.8
Nc1ccncc1 [4-Aminopyridine]	> 45.8	> 45.8
C[C@]12CCC(=O)C=C1CC[C@@H]1[C@@H]2CC[C@]2(C)C(=O)CC[C@@H]12 [4-Androstene-3,17-dione]	> 45.8	> 45.8
Cc1cc(O)cc(C)c1Cl [4-Chloro-3,5-dimethylphenol]	> 45.8	> 45.8
Cc1cc(O)ccc1Cl [4-Chloro-3-methylphenol]	> 45.8	> 45.8
Oc1ccc(Cl)cc1 [4-Chlorophenol]	> 45.8	> 45.8
Cc1c(N(C)C)c(=O)n(-c2ccccc2)n1C [4-Dimethylaminoantipyrine]	> 45.8	> 45.8
CCCCCCc1ccc(O)cc1O [4-Hexylresorcinol]	> 45.8	> 45.8
O=[N+]([O-])c1cc([As](=O)(O)O)ccc1O [4-Hydroxy-3-nitrophenylarsonic acid]	> 45.8	> 45.8
COc1ccc(/C=C/C(=O)O)cc1 [4-Methoxycinnamic acid]	> 45.8	> 45.8
COc1ccc(O)cc1 [4-Methoxyphenol]	> 45.8	> 45.8
Cc1cc(=O)oc2cc(O)ccc12 [4-Methylumbelliferone]	> 45.8	> 45.8

Structure (SMILES)	IC50 cell viability (ICRF193 0 nM) [µM]	IC50 cell viability (ICRF193 200 nM) [µM]
O=S(=O)(O)c1ccc(O)cc1 [4-Phenolsulfonic acid]	> 45.8	> 45.8
CCCc1ccc(C(=O)O)cc1 [4-Propylbenzoic acid]	> 45.8	> 45.8
C(=C\c1ccncc1)/c1ccccc1 [4-Styrylpyridine]	> 45.8	> 45.8
O=C1NC(=O)C(c2ccccc2)(c2ccccc2)N1 [5,5-Diphenylhydantoin]	> 45.8	> 45.8
Cc1ccc2c(Cl)cc(Cl)c(O)c2n1 [5,7-Dichloro-8-hydroxy-2-methylquinoline]	> 45.8	> 45.8
Nc1ccc(O)c(C(=O)O)c1 [5-Aminosalicylic acid]	> 45.8	> 45.8
Cn1sc(Cl)cc1=O [5-Chloro-2-methyl-3(2H)-isothiazolone]	> 45.8	> 45.8
CCCCC[C@H](O)C=C[C@@H]1[C@@H](C/C=C/CCCC(=O)O)[C@H](O)C[C@H]1O [5-trans Prostaglandin F2?]	> 45.8	> 45.8
CC(C)CCC[C@@H](C)[C@H]1CC[C@H]2[C@@H]3CC[C@H]4C[C@@H](O)CC[C@]4(C)[C@H]3CC[C@]12C [5alpha-Cholestan-3beta-ol]	> 45.8	> 45.8
CC1(C)S[C@@H]2[C@H](N)C(=O)N2[C@H]1C(=O)O [6-Aminopenicillanic acid]	> 45.8	> 45.8
Cc1cc(O)c(C(C)C)cc1Cl [6-Chlorothymol]	> 45.8	> 45.8
Cn1c(=O)c2[nH]c(Br)nc2n(C)c1=O [8-Bromotheophylline]	> 45.8	> 45.8
Oc1cccc2cccnc12 [8-Quinolinol Salicylic acid (1:1)]	> 45.8	> 45.8
CCCCC/C=C/C/C=C/CCCCCCCC(=O)O [9(E),12(E)-Octadecadienoic acid]	> 45.8	> 45.8
CCCCCC/C=C\CCCCCCCC(=O)O [9(Z)-Hexadecenoic acid]	> 45.8	> 45.8
CCC(=O)Oc1ccc2c(c1)CCC1C2CCC2(C)C(OC(=O)CC)CCC12 (stereo not drawn) [17-BETA-ESTRADIOL 3,17-DIPROPIONATE]	> 45.8	> 45.8
CC(C)[C@H]1CC[C@H](C)C[C@@H]1O [(1S,2R,5S)-(+)-Menthol]	> 45.8	> 45.8
O=C/C=C/c1ccccc1 [(2E)-3-Phenylprop-2-enal]	> 45.8	> 45.8
CCCCCC[C@@H](CCC)C(=O)O [(2R)-2-Propyloctanoic acid]	> 45.8	> 45.8
O=C(O)[C@@H](S)[C@H](S)C(=O)O [(2R,3R)-2,3-Dimercaptosuccinic acid]	> 45.8	> 45.8
CC(C)[C@@H]1CC[C@@H](C)CC1=O [(2S,5R)-5-Methyl-2-(propan-2-yl)cyclohexanone]	> 45.8	> 45.8
Nc1ccc([As](=O)(O)O)cc1 [(4-Aminophenyl)arsonic acid]	> 45.8	> 45.8

Structure (SMILES)	IC50 cell viability (ICRF193 0 nM) [µM]	IC50 cell viability (ICRF193 200 nM) [µM]
C[C@H](O)[C@H](O)[C@H]1CNc2nc(N)[nH]c(=O)c2N1 [(6R)-5,6,7,8-Tetrahydrobiopterin dihydrochloride]	> 45.8	> 45.8
C=C1CC[C@H](O)C/C1=C/C=C1\CCC[C@]2(C)[C@@H]([C@H](C)CC[C@H](O)C(C)(C)O)CC[C@@H]12 [(24S)-24,25-Dihydroxyvitamin D3]	> 45.8	> 45.8
CC(C)=CCN1CC[C@]2(C)c3cc(O)ccc3C[C@H]1[C@H]2C [(+)-Pentazocine succinate]	> 45.8	> 45.8
COc1cc2c3cc1Oc1cc(ccc1O)C[C@@H]1c4c(cc(OC)c(O)c4Oc4ccc(cc4)C[C@@H]3N(C)CC2)CC[N+]1(C)C [(+)-Tubocurarine chloride hydrochloride]	> 45.8	> 45.8
CCN(CC)C(=O)N[C@@H]1C=C2c3cccc4[nH]cc(c34)C[C@@H]2N(C)C1 [(-)-(5S,8R)-Lisuride]	> 45.8	> 45.8
COC(=O)[C@H]1[C@@H](OC(=O)c2ccccc2)C[C@@H]2CC[C@H]1N2C [(-)-Cocaine hydrochloride]	> 45.8	> 45.8
Oc1cc(O)c2c(c1)O[C@H](c1ccc(O)c(O)c1)[C@H](O)C2 [(-)-Epicatechin]	> 45.8	> 45.8
O=c1[nH]cnc2c1ncn2[C@@H]1O[C@H](CO)[C@@H](O)[C@H]1O [(-)-Inosine]	> 45.8	> 45.8
COc1cc(CNC(=O)CCCC/C=C/C(C)C)ccc1O [(E)-Capsaicin]	> 45.8	> 45.8
Cc1c(OCC(F)(F)F)ccnc1C[S@@+]([O-])c1nc2ccccc2[nH]1 [(R)-Lansoprazole]	> 45.8	> 45.8
CC[C@@]1(c2ccccc2)NC(=O)N(C)C1=O [(S)-Mephenytoin]	> 45.8	> 45.8
Cn1nnc(-c2ccc(-c3ccc(N4C[C@@H](CO)OC4=O)cc3F)cn2)n1 [(S)-Tedizolid]	> 45.8	> 45.8
CC(C)(C)NC[C@H](O)COc1nsnc1N1CCOCC1 [(S)-Timolol]	> 45.8	> 45.8
Nc1nc(NC2CC2)c2ncn([C@H]3C=C[C@@H](CO)C3)c2n1 [ABACAVIR SULFATE]	> 45.8	> 45.8
CN1CC(O)c2cc(N=NC(=N)N)c(O)cc21 (stereo not given) [ADRENOCHROME MONOAMINOGUANIDINE MESILATE ANHYDROUS]	> 45.8	> 45.8
CCOC(=O)[C@H](C)C[C@@H](Cc1ccc(-c2ccccc2)cc1)NC(=O)CCC(=O)O [AHU-377]	> 45.8	> 45.8
NCCCC(O)(P(=O)(O)O)P(=O)(O)O [ALENDRONATE SODIUM]	> 45.8	> 45.8
Cn1c(=O)cc(N2CCC[C@@H](N)C2)n(Cc2ccccc2C#N)c1=O [ALOGLIPTIN BENZOATE]	> 45.8	> 45.8
O=C1c2c(O)cccc2C([C@@H]2O[C@H](CO)[C@@H](O)[C@H](O)[C@H]2O)c2cc(CO)cc(O)c21 (stereo not given in full) [ALOIN]	> 45.8	> 45.8
CC(=O)OCC(=O)[C@@]12OC3(CCCC3)O[C@@H]1C[C@H]1[C@@H]3CCC4=CC(=O)C=C[C@]4(C)[C@@]3(F)[C@@H](O)C[C@@]12C [AMCINONIDE]	> 45.8	> 45.8
CC1(C)S[C@@H]2[C@H](NC(=O)[C@H](N)c3ccccc3)C(=O)N2[C@H]1C(=O)O [AMPICILLIN SODIUM]	> 45.8	> 45.8
